According to paper PMC10246841, “CCX559 is a potent, orally-administered small molecule PD-L1 inhibitor that induces anti-tumor immunity” (PLOS ONE, 2023):
pIC50: −log10 of the molar value.

Experiments:
[1] = target: T1, PD-L1 (Homo sapiens, UniProt Q9NZQ7); experiment: plate-based (ELISA-type) PD-1/PD-L1 binding inhibition assay with recombinant proteins; also CD80/PD-L1 inhibition and PathHunter PD-L1 dimerization in U2OS cells
T1 construct: gene CD274; with PD-1 (displaced in the assay); PD-L1 homodimer induced
T1 sequence (Q9NZQ7 19-290): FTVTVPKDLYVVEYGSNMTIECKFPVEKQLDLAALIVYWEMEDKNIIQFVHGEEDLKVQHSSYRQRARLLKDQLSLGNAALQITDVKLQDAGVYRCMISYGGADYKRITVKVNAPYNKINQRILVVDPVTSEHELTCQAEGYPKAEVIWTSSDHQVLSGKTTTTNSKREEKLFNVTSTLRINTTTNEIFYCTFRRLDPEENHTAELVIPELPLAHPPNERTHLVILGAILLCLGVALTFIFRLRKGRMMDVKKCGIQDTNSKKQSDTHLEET

[2] = target: T2, cynomolgus PD-L1 (Macaca fascicularis, UniProt G7PSE7); experiment: in vitro cynomolgus PD-L1/PD-1 interaction inhibition assay (S5 Fig); assay type: binding
T2 construct: with PD-1 (displaced in the assay)
T2 sequence (G7PSE7 19-238 limits assumed): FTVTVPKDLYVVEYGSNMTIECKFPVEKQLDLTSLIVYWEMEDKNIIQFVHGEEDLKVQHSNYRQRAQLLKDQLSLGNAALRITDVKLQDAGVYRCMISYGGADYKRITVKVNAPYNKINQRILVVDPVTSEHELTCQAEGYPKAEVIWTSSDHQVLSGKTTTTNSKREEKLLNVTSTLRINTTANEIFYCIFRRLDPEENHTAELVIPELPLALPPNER

## CCX559
[1]
  pIC50: 9.33
[2]
  pIC50: 9.68
